Among the data in patent publication US9802937B2, “Substituted pyrazolo{4,3-D}pyrimidines as kinase inhibitors” (ORIGENIS GMBH, priority 2011, dated 2017) are Ki values, retold here.

For the assay, the target named is T1, SYK kinase (Homo sapiens, UniProt P43405).
T1 construct: purchased Invitrogen, Carlsbad
The assay is described as follows: SYK Assay (OMNIA KINASE ASSAY, SOX peptide fluorescence). The format is biochemical. The settings on record: apparent Ki calculated from the IC50 using the Cheng-Prusoff equation; 1 mM ATP, 30° C.; read-out: SYK Activities: Ki. The protocol:
In the assay OMNIA® KINASE ASSAY by Invitrogen Corporation (Carlsbad) the effect of invention of a compound on the phosphorylation is determined by measurement of fluorescence intensity of a chelation-enhanced fluorophore called SOX. Upon phosphorylation of the peptide by the kinase of interest, Mg2+ is chelated to form a bridge between the SOX moiety and the phosphate group that is transferred to the specific tyrosine on the peptide. The fluorescence intensity is directly proportional to the amount of peptide phosphorylation.
To the wells of an 384 well small volume plate (Greiner, Frickenhausen) are added (i) the compound under test in 5% DMSO/distilled water (2 μl), (ii) 16 μl of the master mix containing ATP, DTT, Kinase Reaction Buffer, Omina Peptide Substrate Tyr 7 resulting in a final concentration of 1 mM ATP, 0.2 mM DTT and 10 μM Peptide Substrate.
The Master Mix and the assay plate was incubated to reaction temperature before the measurement (30° C.). The reaction was started with addition of (iii) 2 μl 4 μg/ml SYK kinase (Invitrogen, Carlsbad). During measurement fluorescence intensitiy readings were collected using a TECAN M1000 at a wavelength of λex 360/λem 485 nm every 30 s for 30 minutes. The reaction velocity was plotted versus the inhibitor concentration to determine the […] using XLFit 5.0 (IDBS, Guildford) to fit to a sigmoidal dose response curve, and the apparent Ki values were calculated from the IC50 using the Cheng-Prusoff equation (Cheng, Y.; Prusoff, W. H. Biochem. Pharmacol. 22, 3099-3108, 1973).
As for `CN1CCN(c2ccc(Nc3nc(-c4cccc(S(F)(F)(F)(F)F)c4)nc4cn[nH]c34)cc2)CC1` [Example #221, N-(4-(4-methylpiperazin-1-yl)phenyl)-5-(3-(pentafluorosulfanyl)phenyl)-1H-pyrazolo[4,3-d]pyrimidin-7-amine], the Ki was 10 to 100 nM.
Under `O=C1CCc2ccc(Nc3nc(-c4cccc(S(F)(F)(F)(F)F)c4)nc4cn[nH]c34)cc2N1` [Example #222, 7-((5-(3-(pentafluorosulfanyl)phenyl)-1H-pyrazolo[4,3-d]pyrimidin-7-yl)amino)-3,4-dihydroquinolin-2(1H)-one] stands 100 to 1000 nM; under `COc1ccc(Nc2nc(-c3cccc(SC)c3)nc3cn[nH]c23)cc1OC` [Example #223, N-(3,4-dimethoxyphenyl)-5-(3-(methylthio)phenyl)-1H-pyrazolo[4,3-d]pyrimidin-7-amine], 10 to 100 nM.
Under `CSc1cccc(-c2nc(Nc3ccc(N4CCOCC4)cc3)c3[nH]ncc3n2)c1` [Example #224, 5-(3-(methylthio)phenyl)-N-(4-morpholinophenyl)-1H-pyrazolo[4,3-d]pyrimidin-7-amine] stands 100 to 1000 nM; under `COc1ccc(Nc2nc(-c3cccc(OC(F)(F)F)c3)nc3cn[nH]c23)cc1OC` [Example #226, N-(3,4-dimethoxyphenyl)-5-(3-(trifluoromethoxy)phenyl)-1H-pyrazolo[4,3-d]pyrimidin-7-amine], 10 to 100 nM; under `FC(F)(F)Oc1cccc(-c2nc(Nc3ccc(N4CCOCC4)cc3)c3[nH]ncc3n2)c1` [Example #227, N-(4-morpholinophenyl)-5-(3-(trifluoromethoxy)phenyl)-1H-pyrazolo[4,3-d]pyrimidin-7-amine], 10 to 100 nM.
Under `COc1ccc(Nc2nc(-c3cccc(C(F)(F)F)c3)nc3cn[nH]c23)cc1OC` [Example #228, N-(3,4-dimethoxyphenyl)-5-(3-(trifluoromethyl)phenyl)-1H-pyrazolo[4,3-d]pyrimidin-7-amine] stands 10 to 100 nM; under `FC(F)(F)c1cccc(-c2nc(Nc3ccc(N4CCOCC4)cc3)c3[nH]ncc3n2)c1` [Example #229, N-(4-morpholinophenyl)-5-(3-(trifluoromethyl)phenyl)-1H-pyrazolo[4,3-d]pyrimidin-7-amine], 10 to 100 nM; under `COc1ccc(Nc2nc(-c3cccc(Cl)c3)nc3cn[nH]c23)cc1OC` [Example #230, 5-(3-chlorophenyl)-N-(3,4-dimethoxyphenyl)-1H-pyrazolo[4,3-d]pyrimidin-7-amine], 10 to 100 nM.
Consider `Clc1cccc(-c2nc(Nc3ccc(N4CCOCC4)cc3)c3[nH]ncc3n2)c1` [Example #231, 5-(3-chlorophenyl)-N-(4-morpholinophenyl)-1H-pyrazolo[4,3-d]pyrimidin-7-amine], for which the Ki was 10 to 100 nM.
Consider `CSc1cccc(-c2nc(Nc3ccc4c(c3)NC(=O)CC4)c3[nH]ncc3n2)c1` [Example #236, 7-((5-(3-(methylthio)phenyl)-1H-pyrazolo[4,3-d]pyrimidin-7-yl)amino)-3,4-dihydroquinolin-2(1H)-one], for which the Ki was 10 to 100 nM.
The value for `COC(=O)c1ccc(-c2nc(Nc3ccc(N4CCOCC4)cc3)c3[nH]ncc3n2)cc1` [Example #242, methyl 4-(7-((4-morpholinophenyl)amino)-1H-pyrazolo[4,3-d]pyrimidin-5-yl)benzoate] was 10 to 100 nM; that for `O=C(O)c1ccc(-c2nc(Nc3ccc(N4CCOCC4)cc3)c3[nH]ncc3n2)cc1` [Example #243, 4-(7-((4-morpholinophenyl)amino)-1H-pyrazolo[4,3-d]pyrimidin-5-yl)benzoic acid] was under 10 nM; that for `COc1ccc(Nc2nc(-c3ccc(C(=O)O)cc3)nc3cn[nH]c23)cc1OC` [Example #244, 4-(7-((3,4-dimethoxyphenyl)amino)-1H-pyrazolo[4,3-d]pyrimidin-5-yl)benzoic acid] was under 10 nM.
Consider `Cc1nc2cc(Nc3nc(-c4cccs4)nc4cn[nH]c34)ccc2[nH]1` [Example #245, N-(2-methyl-1H-benzo[d]imidazol-5-yl)-5-(thiophen-2-yl)-1H-pyrazolo[4,3-d]pyrimidin-7-amine], for which the Ki was under 10 nM.
As to `CC(=O)N1CCN(c2ccc(Nc3nc(-c4cccc(S(C)(=O)=O)c4)nc4cn[nH]c34)cc2)CC1` [Example #246, 1-(4-(4-((5-(3-(methylsulfonyl)phenyl)-1H-pyrazolo[4,3-d]pyrimidin-7-yl)amino)phenyl)piperazin-1-yl)ethan-1-one], the Ki is under 10 nM.
Turning to `COc1ccc(Nc2nc(-c3cccc(S(C)(=O)=O)c3)nc3cn[nH]c23)cc1OC` [Example #249, N-(3,4-dimethoxyphenyl)-5-(3-(methylsulfonyl)phenyl)-1H-pyrazolo[4,3-d]pyrimidin-7-amine], the Ki was 10 to 100 nM.
Turning to `CS(=O)(=O)c1cccc(Nc2nc(-c3cccc(S(C)(=O)=O)c3)nc3cn[nH]c23)c1` [Example #253, N,5-bis(3-(methylsulfonyl)phenyl)-1H-pyrazolo[4,3-d]pyrimidin-7-amine], the Ki was 10 to 100 nM.
Consider `CC(=O)N1CCN(c2ccc(Nc3nc(-c4cnc5cc[nH]c5c4)nc4cn[nH]c34)cc2)CC1` [Example #256, 1-(4-(4-((5-(1H-pyrrolo[3,2-b]pyridin-6-yl)-1H-pyrazolo[4,3-d]pyrimidin-7-yl)amino)phenyl)piperazin-1-yl)ethan-1-one], for which the Ki is under 10 nM.
Under `c1cc2ncc(-c3nc(Nc4ccc(N5CCOCC5)cc4)c4[nH]ncc4n3)cc2[nH]1` [Example #258, N-(4-morpholinophenyl)-5-(1H-pyrrolo[3,2-b]pyridin-6-yl)-1H-pyrazolo[4,3-d]pyrimidin-7-amine] stands 10 to 100 nM; under `Cc1nc2cc(Nc3nc(-c4cnc5cc[nH]c5c4)nc4cn[nH]c34)ccc2[nH]1` [Example #259, N-(2-methyl-1H-benzo[d]imidazol-5-yl)-5-(1H-pyrrolo[3,2-b]pyridin-6-yl)-1H-pyrazolo[4,3-d]pyrimidin-7-amine], 100 to 1000 nM; under `CN(C)S(=O)(=O)c1ccc(Nc2nc(-c3cccs3)nc3cn[nH]c23)cc1` [Example #260, N,N-dimethyl-4-((5-(thiophen-2-yl)-1H-pyrazolo[4,3-d]pyrimidin-7-yl)amino)benzenesulfonamide], 10 to 100 nM.
The value for `c1cc(Nc2nc(-c3cccs3)nc3cn[nH]c23)cc(-n2nccn2)c1` [Example #262, N-(3-(2H-1,2,3-triazol-2-yl)phenyl)-5-(thiophen-2-yl)-1H-pyrazolo[4,3-d]pyrimidin-7-amine] was 100 to 1000 nM.
Consider `c1csc(-c2nc(Nc3ccc(-n4nccn4)cc3)c3[nH]ncc3n2)c1` [Example #263, N-(4-(2H-1,2,3-triazol-2-yl)phenyl)-5-(thiophen-2-yl)-1H-pyrazolo[4,3-d]pyrimidin-7-amine], for which the Ki was 100 to 1000 nM.
Turning to `CN(C)S(=O)(=O)c1cccc(Nc2nc(-c3cccs3)nc3cn[nH]c23)c1` [Example #264, N,N-dimethyl-3-((5-(thiophen-2-yl)-1H-pyrazolo[4,3-d]pyrimidin-7-yl)amino)benzenesulfonamide], the Ki was 100 to 1000 nM.
Turning to `O=S(=O)(c1cccc(Nc2nc(-c3cccs3)nc3cn[nH]c23)c1)N1CCOCC1` [Example #266, N-(3-(morpholinosulfonyl)phenyl)-5-(thiophen-2-yl)-1H-pyrazolo[4,3-d]pyrimidin-7-amine], the Ki is 100 to 1000 nM.
